Assays:
Assay type in all cases: in vivo
Settings in all cases: 20% concentration
[1] = tested on: bedbugs, Cimex lectularius; assay: Insect repellent bioassay, bedbugs (treated tile arena)
Description: (§1) A laboratory bioassay was conducted to screen 5 compounds (Icaridin (38); and 4 icaridin analogues: 39, 40a, 42a and 41) for repellent activity against houseflies, Musca domestica, black ants, Lasius niger, German cockroaches, Blattella germanica, and bedbugs, Cimex lectularius. Compounds were diluted in a mixture of ethanol and water and assessed at a 20% concentration. A mixture of ethanol/water only negative control was also included for comparative purposes. These were applied onto an aluminium foil tile, which was placed into one half of an arena. The other half of the arena contained an untreated aluminium foil tile. The number of insects present in the treated and untreated area was assessed every 5 minutes for a total of 20 minutes.
Bedbugs, Cimex lectularius, were obtained from a laboratory culture maintained at CimexStore (Chepstow, UK). Mixed age and sex adult bedbugs were used in the experiments (see deviation below).
(§2) Temperature was maintained between 24.2 and 24.6° C. and relative humidity ranged between 27.5% and 43.5%, throughout the experimental period.
(§3) The tested compounds were diluted in ethanol and water to a concentration of 20% (w/w: compound 20%, ethanol 40%, water 40%). The concentrates were prepared at room temperature and stirred for approximately 15 minutes using a vortex mixer. A negative control (mixture of ethanol:water 50:50) was also included in the testing for comparative purposes. Treatments were applied directly on to a non porous surface (aluminium foil), using a Gilson pipette at a rate of 0.225 ml per 225 cm^2 surface tile. A small piece of acetate was used to evenly spread the treatments across the entire surface of the tile.
(§4) For the testing against ants, cockroaches and bedbugs: A clear plastic container was used measuring approximately 34 cm long×21 cm wide×20 cm high. This was divided into two halves. The treated aluminium foil was placed in one half and the other half contained untreated foil. Food (sugar cube for black ants and bran pellet for cockroaches) and water (damp cotton wool) were placed in each half where appropriate. Twenty ants/cockroaches and ten bedbugs were placed in the centre of the arena. The number of insects in each half was assessed at 5 minute intervals for a total of 20 minutes.
(§5) Three to six replicates were performed for each treatment, for each species.

[2] = tested on: black ants, Lasius niger; assay: Insect repellent bioassay, black ants (treated tile arena)
Description: as §1
Black ants, Lasius niger, were field collected from the Cardiff area. Mixed age worker ants were used in the experiments.
as §2, §3, §4, §5

[3] = tested on: German cockroaches, Blattella germanica; assay: Insect repellent bioassay, German cockroaches (treated tile arena)
Description: as §1
(§6) Houseflies, Musca domestica, and German cockroaches, Blattella germanica, were obtained from a laboratory culture maintained at i2LResearch. Mixed sex and age adult insects (flies were aged 3-6 days old) were used in the experiments.
as §2, §3, §4, §5

[4] = tested on: houseflies, Musca domestica; assay: Insect repellent bioassay, houseflies (treated tile arena)
Description: as §1, §6, §2, §3
For the testing against houseflies: A clear plastic container was used measuring approximately 34 cm long×21 cm wide×20 cm high, with a piece of netting and lid on top. This was divided into two halves using an additional tile with a small slit measuring approximately 2.5 cm×5 cm cut at a height of […] from the base, so that the insects could freely travel between halves. A treated and untreated tile was placed either side of the dividing panel. Twenty flies were placed in the half with the treated surface. Sugar and water was placed in both halves. The number of insects crossing from the treated area into the untreated area was assessed at 5 minute intervals for a total of 20 minutes.
as §5

`CCC(C)OC(=O)N1CCCCC1CC=O` (stereo not drawn) [Compound 39, sec-Butyl 2-(2-oxoethyl)piperidine-1-carboxylate] was tested, and the “insects on the treated tile” value ([1]; TIME 5 mins) was “A (10% or less of the insects were on the treated tile)”, the “insects on the treated tile” value ([1]; TIME 20 mins) was “A (10% or less of the insects were on the treated tile)” and the “insects on the treated tile” value ([2]; TIME 5 mins) was “B (between 11% and 25% were on the treated tile)”. For the same compound, the “insects on the treated tile” value ([2]; TIME 10 mins) was “B (between 11% and 25% were on the treated tile)”, the “insects on the treated tile” value ([2]; TIME 15 mins) was “B (between 11% and 25% were on the treated tile)” and the “insects on the treated tile” value ([2]; TIME 20 mins) was “B (between 11% and 25% were on the treated tile)”. For the same compound, the “insects on the treated tile” value ([3]; TIME 5 mins) was “B (between 11% and 25% were on the treated tile)”, the “insects on the treated tile” value ([3]; TIME 10 mins) was “B (between 11% and 25% were on the treated tile)” and the “insects on the treated tile” value ([3]; TIME 15 mins) was “B (between 11% and 25% were on the treated tile)”. The “insects on the treated tile” value ([3]; TIME 20 mins) was “B (between 11% and 25% were on the treated tile)”, the “insects moving towards the treated tile” value ([4]; TIME 5 mins) was “B (between 11% and 25% were on the treated tile)” and the “insects moving towards the treated tile” value ([4]; TIME 10 mins) was “C (greater than 25% were on the treated tile)”. The “insects moving towards the treated tile” value ([4]; TIME 15 mins) was “C (greater than 25% were on the treated tile)” and the “insects moving towards the treated tile” value ([4]; TIME 20 mins) was “C (greater than 25% were on the treated tile)”.

With `CCC(C)OC(=O)N1CCCCC1C/C=N/O` (stereo not drawn) [Compound 40a] the “insects on the treated tile” value ([1]; TIME 10 mins) was “A (10% or less of the insects were on the treated tile)”, the “insects on the treated tile” value ([2]; TIME 5 mins) was “C (greater than 25% were on the treated tile)” and the “insects on the treated tile” value ([2]; TIME 10 mins) was “C (greater than 25% were on the treated tile)”. The “insects on the treated tile” value ([2]; TIME 15 mins) was “C (greater than 25% were on the treated tile)”, the “insects on the treated tile” value ([2]; TIME 20 mins) was “C (greater than 25% were on the treated tile)” and the “insects on the treated tile” value ([3]; TIME 5 mins) was “C (greater than 25% were on the treated tile)”. For the same compound, the “insects on the treated tile” value ([3]; TIME 10 mins) was “B (between 11% and 25% were on the treated tile)”, the “insects on the treated tile” value ([3]; TIME 15 mins) was “B (between 11% and 25% were on the treated tile)” and the “insects on the treated tile” value ([3]; TIME 20 mins) was “B (between 11% and 25% were on the treated tile)”. The “insects moving towards the treated tile” value ([4]; TIME 5 mins) was “B (between 11% and 25% were on the treated tile)”, the “insects moving towards the treated tile” value ([4]; TIME 10 mins) was “B (between 11% and 25% were on the treated tile)” and the “insects moving towards the treated tile” value ([4]; TIME 15 mins) was “B (between 11% and 25% were on the treated tile)”. For the same compound, the “insects moving towards the treated tile” value ([4]; TIME 20 mins) was “B (between 11% and 25% were on the treated tile)”.

`CCC(C)OC(=O)N1CCCCC1CC(=O)O` (stereo not drawn) [Compound 41, 2-(1-sec-Butoxycarbonyl-2-piperidyl)acetic acid] was tested, and the “insects on the treated tile” value ([1]; TIME 5 mins) was “A (10% or less of the insects were on the treated tile)”, the “insects on the treated tile” value ([1]; TIME 10 mins) was “B (between 11% and 25% were on the treated tile)” and the “insects on the treated tile” value ([1]; TIME 15 mins) was “B (between 11% and 25% were on the treated tile)”. The “insects on the treated tile” value ([1]; TIME 20 mins) was “B (between 11% and 25% were on the treated tile)”, the “insects on the treated tile” value ([2]; TIME 5 mins) was “C (greater than 25% were on the treated tile)” and the “insects on the treated tile” value ([2]; TIME 10 mins) was “C (greater than 25% were on the treated tile)”. For the same compound, the “insects on the treated tile” value ([2]; TIME 15 mins) was “C (greater than 25% were on the treated tile)”, the “insects on the treated tile” value ([2]; TIME 20 mins) was “C (greater than 25% were on the treated tile)” and the “insects on the treated tile” value ([3]; TIME 5 mins) was “B (between 11% and 25% were on the treated tile)”. The “insects on the treated tile” value ([3]; TIME 10 mins) was “B (between 11% and 25% were on the treated tile)”, the “insects on the treated tile” value ([3]; TIME 15 mins) was “B (between 11% and 25% were on the treated tile)” and the “insects on the treated tile” value ([3]; TIME 20 mins) was “B (between 11% and 25% were on the treated tile)”. The “insects moving towards the treated tile” value ([4]; TIME 5 mins) was “A (10% or less of the insects were on the treated tile)”, the “insects moving towards the treated tile” value ([4]; TIME 10 mins) was “A (10% or less of the insects were on the treated tile)” and the “insects moving towards the treated tile” value ([4]; TIME 15 mins) was “B (between 11% and 25% were on the treated tile)”. For the same compound, the “insects moving towards the treated tile” value ([4]; TIME 20 mins) was “B (between 11% and 25% were on the treated tile)”.

With `CCC(C)OC(=O)N1CCCCC1CC(=O)OC` (stereo not drawn) [Compound 42a, sec-Butyl 2-(2-methoxy-2-oxo-ethyl)piperidine-1-carboxylate] the “insects on the treated tile” value ([1]; TIME 5 mins) was “A (10% or less of the insects were on the treated tile)”, the “insects on the treated tile” value ([1]; TIME 10 mins) was “A (10% or less of the insects were on the treated tile)” and the “insects on the treated tile” value ([1]; TIME 15 mins) was “A (10% or less of the insects were on the treated tile)”. For the same compound, the “insects on the treated tile” value ([1]; TIME 20 mins) was “A (10% or less of the insects were on the treated tile)”, the “insects on the treated tile” value ([2]; TIME 5 mins) was “B (between 11% and 25% were on the treated tile)” and the “insects on the treated tile” value ([2]; TIME 10 mins) was “B (between 11% and 25% were on the treated tile)”. For the same compound, the “insects on the treated tile” value ([2]; TIME 15 mins) was “B (between 11% and 25% were on the treated tile)”, the “insects on the treated tile” value ([2]; TIME 20 mins) was “A (10% or less of the insects were on the treated tile)” and the “insects on the treated tile” value ([3]; TIME 5 mins) was “B (between 11% and 25% were on the treated tile)”. For the same compound, the “insects on the treated tile” value ([3]; TIME 10 mins) was “B (between 11% and 25% were on the treated tile)”, the “insects on the treated tile” value ([3]; TIME 15 mins) was “B (between 11% and 25% were on the treated tile)” and the “insects on the treated tile” value ([3]; TIME 20 mins) was “B (between 11% and 25% were on the treated tile)”. For the same compound, the “insects moving towards the treated tile” value ([4]; TIME 5 mins) was “A (10% or less of the insects were on the treated tile)”, the “insects moving towards the treated tile” value ([4]; TIME 10 mins) was “A (10% or less of the insects were on the treated tile)” and the “insects moving towards the treated tile” value ([4]; TIME 15 mins) was “B (between 11% and 25% were on the treated tile)”. For the same compound, the “insects moving towards the treated tile” value ([4]; TIME 20 mins) was “B (between 11% and 25% were on the treated tile)”.

For `CCC(C)OC(=O)N1CCCCC1CCO` (stereo not drawn) [Icaridin (38), Icaridin, reference compound], the “insects on the treated tile” value ([1]; TIME 5 mins) was “A (10% or less of the insects were on the treated tile)”, the “insects on the treated tile” value ([1]; TIME 10 mins) was “A (10% or less of the insects were on the treated tile)” and the “insects on the treated tile” value ([1]; TIME 15 mins) was “A (10% or less of the insects were on the treated tile)”. For the same compound, the “insects on the treated tile” value ([1]; TIME 20 mins) was “A (10% or less of the insects were on the treated tile)”, the “insects on the treated tile” value ([2]; TIME 5 mins) was “B (between 11% and 25% were on the treated tile)” and the “insects on the treated tile” value ([2]; TIME 10 mins) was “B (between 11% and 25% were on the treated tile)”. The “insects on the treated tile” value ([2]; TIME 15 mins) was “B (between 11% and 25% were on the treated tile)”, the “insects on the treated tile” value ([2]; TIME 20 mins) was “A (10% or less of the insects were on the treated tile)” and the “insects on the treated tile” value ([3]; TIME 5 mins) was “B (between 11% and 25% were on the treated tile)”. The “insects on the treated tile” value ([3]; TIME 10 mins) was “B (between 11% and 25% were on the treated tile)”, the “insects on the treated tile” value ([3]; TIME 15 mins) was “A (10% or less of the insects were on the treated tile)” and the “insects on the treated tile” value ([3]; TIME 20 mins) was “A (10% or less of the insects were on the treated tile)”. For the same compound, the “insects moving towards the treated tile” value ([4]; TIME 5 mins) was “B (between 11% and 25% were on the treated tile)”, the “insects moving towards the treated tile” value ([4]; TIME 10 mins) was “C (greater than 25% were on the treated tile)” and the “insects moving towards the treated tile” value ([4]; TIME 15 mins) was “C (greater than 25% were on the treated tile)”. The “insects moving towards the treated tile” value ([4]; TIME 20 mins) was “C (greater than 25% were on the treated tile)”.
